Each structure is given as a SMILES string.

Assay [1] relates to C4-2 cells. Put plainly: MTT cell viability assay, C4-2 cells. The settings on record: for EC50: C4-2, 72 h, 0.1 μM-10 μM, read-out: EC50, inhibition of C4-2 cell growth; for cell death (viable cells below the number on Day 0): C4-2 cells, 5 μM, MTT Day 3 relative to Day 0, FIG. 6C. In kind it is cell-based. As for the experimental part: (6A) C4-2 cells were seeded in 96-well plates and 24 h later, they were treated with the indicated compounds (0.1 μM-10 μM) or with vehicle (DMSO). Cell viability was measured by the MTT assay on Days 0 and 3 of treatment. EC50 values were calculated from nonlinear regression plots using GraphPad Prism5 software. […] Cell viability was measured by the MTT assay on Days 0 and 3 of treatment. […] Cell viability was measured by the MTT assay on Days 0 and 3 of treatment. […] (6D) 22Rv1 cells were infected with AR shRNA lentivirus, or control shRNA. 72 h after infection, cells were plated and viable cells were measured by the MTT assay on the indicated days (6D, bottom). Cells were also harvested for western blot analysis and probed with antibody to AR, which was also reactive with the AR splice variant AR-V7 (6D, top). (6E) 22Rv1 cells were seeded in 96-well plates and 24 h later, they were treated with the indicated compounds (0.1 μM-10 μM) or with vehicle (DMSO). Cell viability was measured by the MTT assay on Days 0 and 3 of treatment. EC50 values were calculated from nonlinear regression plots using GraphPad Prism5 software.
Cell Proliferation Assay. Cells were trypsinized and 6000 cells/well were seeded in 96-well plates coated with poly-D-lysine. The cells were seeded in phenol red-free medium supplemented with 10% FBS, 100 units/ml penicillin, 100 μg/ml streptomycin, 2 mM L-glutamine mixture and sodium pyruvate (1 mM) for C4-2 cells and phenol red-free medium supplemented with 10% FBS, 100 units/ml penicillin, 100 μg/ml streptomycin and 2 mM L-glutamine mixture for 22Rv1 cells. The cells were grown at 37° C. in 5% CO2. Twenty four hours after seeding in the 96-well plates, the cells were treated with indicated compound or DMSO (vehicle). The culture medium was not changed during the time course of the assay. On Day zero and on Day 3, cell viability was determined using the MTT assay. MTT (10 μL, 5 mg/mL) was added to each well and incubated for 2 h at 37° C. The formazan crystal sediments were dissolved in 100 μL of DMSO, and the absorbance at 570 nm was measured using the BioTek Synergy 2 Microplate Reader (BioTek, Winooski, Vt.). […] IC50 values were calculated from nonlinear […] plots using GraphPad Prism5 software.
Background: Formazan colour is commonly taken as a measure of viable cells.

The test system of assay [2] is p21 mRNA in C4-2 cells. Put plainly: p21 mRNA induction in C4-2 cells. The note with it: 48 h, FIG. 5B.
Method: (§4) Total RNA was isolated from cells using the RNeasy Mini Kit (Qiagen). Reverse transcription PCR was then performed using 500 ng of total RNA with random primers and using the high-capacity complementary DNA Archive kit (Applied Biosystems). The complementary DNA from this reaction was measured using quantitative real time PCR using the StepONE Plus Real Time PCR system (Life Technologies Corporation, Carlsbad, Calif.). All reactions were performed in triplicate and normalized to glyceraldehyde-3-phosphate-dehydrogenase values in the same samples.
The test system of assay [3] is p21 mRNA in LNCaP cells. Put plainly: p21 mRNA induction in LNCaP cells. The settings on record: 10 μM, 48 h, FIG. 5A.
Method: as §4
The test system of assay [4] is 55 KDa polypeptide (putative Hsp90 fragment). Put plainly: Western blot of acetylated lysine in C4-2 cells. The note with it: 24 h, acetylated lysine antibody, FIG. 4C. For orientation: A western blot detects proteins with antibodies after separation by electrophoresis.
Method: Cells were then harvested for western blot analysis using antibody to AR (4A), HSP90 (4B), Acetyl-Lysine (4C) or GAPDH (loading control). ImageJ software was used to determine the intensities of the bands relative to the vehicle control for each protein. The values were then divided by the values for GAPDH within the same samples.
Western Blot Analysis. Cells were washed once with phosphate buffered saline (PBS) and then lysed with RIPA buffer (150 mM NaCl, 1% Nonidet P-40, 0.5% sodium deoxycholate, 0.1% SDS, 50 mM Tris of pH 8.0) containing a protease inhibitor cocktail (Pierce, Thermo Fisher Scientific). The cell lysates were then incubated on ice for 40 minutes. Total protein concentrations were estimated using the Bradford Assay (Bio-Rad). Protein samples (10-40 ug) were heated at 95° C. for 5 minutes and resolved by electrophoresis on 8% polyacrylamide-SDS gels and electrophoretically transferred to PVDF membranes (Millipore, Billerica, Mass.). The membranes were then probed overnight at 4° C. with the appropriate primary antibody followed by the appropriate horseradish peroxidase-conjugated secondary antibody.
The subject of assay [5] is HDACs from Hela cell nuclear extract. In kind it is biochemical. The note with it: for IC50: cell-free, FIG. 2A, read-out: IC50, inhibition of HDACs enriched in the Hela nuclear extract. As for the experimental part: (§1) FIGS. 2A-2F show measurement of intrinsic and in situ HDACi activities. […] IC50 values were calculated from nonlinear regression plots using GraphPad Prism5 software. […] Recombinant HDAC6 was incubated with each drug at the indicated concentrations. IC50 values were calculated from nonlinear regression plots using GraphPad Prism5 software.
(§2) HDAC activity assay. In vitro HDAC inhibition was measured by using the HDAC fluorimetric assay/drug discovery Kit (Enzo Life Sciences, BML-AK500) and the HDAC6 fluorometric drug discovery kit (Enzo Life Sciences, BML-AK516) following the manufacturer's protocols and instructions. IC50 values were calculated from nonlinear […] plots using GraphPad Prism5 software.
(§3) HDAC1 and HDAC2 are enriched in nuclear extracts whereas HDAC6 is a cytosolic enzyme that is the principal modulator of the acetylation status of Hsp90. […] Again, TSA served as the positive control in FIG. 2D.

Assay [6] concerns the target T1, human recombinant HDAC6 (Homo sapiens, UniProt Q9UBN7).
T1 construct: purchased Enzo Life Sciences BML-AK516
T1 sequence (Q9UBN7 1-1215): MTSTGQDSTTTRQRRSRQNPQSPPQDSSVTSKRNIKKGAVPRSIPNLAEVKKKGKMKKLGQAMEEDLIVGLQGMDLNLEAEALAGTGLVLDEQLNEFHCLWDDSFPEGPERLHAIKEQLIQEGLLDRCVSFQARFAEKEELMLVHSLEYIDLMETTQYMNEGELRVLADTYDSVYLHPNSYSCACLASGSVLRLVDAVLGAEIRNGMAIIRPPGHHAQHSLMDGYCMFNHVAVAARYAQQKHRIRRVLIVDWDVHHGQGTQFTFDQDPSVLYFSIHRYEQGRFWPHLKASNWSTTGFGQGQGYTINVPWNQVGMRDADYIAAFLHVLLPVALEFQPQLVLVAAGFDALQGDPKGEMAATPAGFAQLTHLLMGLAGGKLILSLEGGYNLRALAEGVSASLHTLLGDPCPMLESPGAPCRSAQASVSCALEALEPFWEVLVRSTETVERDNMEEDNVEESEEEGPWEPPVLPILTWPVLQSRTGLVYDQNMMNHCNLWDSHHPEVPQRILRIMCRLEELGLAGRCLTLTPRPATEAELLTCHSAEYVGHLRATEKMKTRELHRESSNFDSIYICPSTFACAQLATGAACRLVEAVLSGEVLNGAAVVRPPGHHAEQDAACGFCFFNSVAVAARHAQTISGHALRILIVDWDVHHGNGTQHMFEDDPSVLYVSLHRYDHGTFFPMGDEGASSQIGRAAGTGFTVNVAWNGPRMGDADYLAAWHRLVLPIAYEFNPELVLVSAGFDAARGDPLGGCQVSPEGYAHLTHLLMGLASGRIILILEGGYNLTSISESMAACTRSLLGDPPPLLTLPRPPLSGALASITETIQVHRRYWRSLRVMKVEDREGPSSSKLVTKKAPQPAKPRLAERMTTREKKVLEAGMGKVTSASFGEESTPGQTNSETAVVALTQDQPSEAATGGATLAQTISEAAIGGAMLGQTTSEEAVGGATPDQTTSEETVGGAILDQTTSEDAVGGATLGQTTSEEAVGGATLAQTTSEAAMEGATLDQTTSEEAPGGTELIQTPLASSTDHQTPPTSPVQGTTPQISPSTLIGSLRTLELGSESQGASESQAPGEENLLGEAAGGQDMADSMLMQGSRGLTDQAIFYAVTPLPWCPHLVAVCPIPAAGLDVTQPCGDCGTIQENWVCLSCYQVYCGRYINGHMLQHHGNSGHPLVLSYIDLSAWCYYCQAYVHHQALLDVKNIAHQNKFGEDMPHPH
Put plainly: HDAC6 fluorometric assay, recombinant enzyme. In kind it is biochemical. The settings on record: for IC50: cell-free, FIG. 2C, read-out: IC50, inhibition of recombinant HDAC6. The method, then: as §1, §2, §3

For `CNC(=O)c1ccc(N2C(=S)N(c3ccc(C#N)c(C(F)(F)F)c3)C(=O)C2(C)C)cc1F` [Enz, Enzalutamide, reference compound], the “effect on C4-2 cell growth” value in assay [1] (MTT, Day 3, up to 10 μM, FIG. 6A) was “could not appreciably affect growth even at a concentration of 10 μM”. Also, the “p21 mRNA expression” value in assay [2] and in assay [3] was “had no effect” in each case. The “hyper-acetylation of a 55 KDa polypeptide” value (shortened to “hyper-acetylation”) in assay [4] is “not”. In addition, the “inhibition of nuclear HDAC activity” value in assay [5] (HeLa cell nuclear extract, tested at 10 μM and 25 μM, FIG. 2B) is given as “lacked any HDACi activity”. Further, the “inhibitory activity against HDAC6” value in assay [6] (tested at 10 μM and 25 μM, FIG. 2D) is reported as “did not show significant inhibitory activity”.
Turning to `CC1(C)C(=O)N(c2ccc(C#N)c(C(F)(F)F)c2)C(=S)N1c1ccc(C(=O)NCCCCCCC(=O)NO)c(F)c1` [Compound 2-75, 4-(3-(4-cyano-3-(trifluoromethyl)phenyl)-5,5-dimethyl-4-oxo-2-thioxoimidazolidin-1-yl)-2-fluoro-N-(7-(hydroxyamino)-7-oxoheptyl)benzamide], in assay [1] (MTT, Day 3, FIG. 6A), the EC50 came out at 1.62 µM. In assay [1], the “cell death (viable cells below the number on Day 0)” value is given as “caused cell death”. Further, the “p21 mRNA expression” value in assay [2] and in assay [3] was “induced p21 to a greater extent than SAHA” throughout. In addition, in assay [4], the “hyper-acetylation” value was “hyper-acetylation of a 55 KDa polypeptide”. The half-inhibitory concentration (IC50) in assay [5] came to 1.08 µM; in assay [6], 2 µM.
Regarding `CC1(C)C(=O)N(c2ccc(C#N)c(C(F)(F)F)c2)C(=S)N1c1ccc(/C=C/C(=O)NO)c(F)c1` [Compound 1005, (E)-3-(4-(3-(4-cyano-3-(trifluoromethyl)phenyl)-5,5-dimethyl-4-oxo-2-thioxoimidazolidin-1-yl)-2-fluorophenyl)-N-hydroxyacrylamide], in assay [1] (MTT, Day 3, FIG. 6A), the EC50 stood at 3.29 µM. In assay [1], the “cell death (viable cells below the number on Day 0)” value is “caused cell death”. The “p21 mRNA expression” value in assay [2] and in assay [3] was “induced p21 to a greater extent than SAHA” in each case. Moreover, in assay [4], the “hyper-acetylation” value is listed as “hyper-acetylation of a 55 KDa polypeptide”. Besides, the figures for the half-maximal inhibitory concentration (IC50) in assay [5] and in assay [6] were 2.41 µM and 6.93 µM, respectively.

As a reminder, the EC50 is the concentration at which the effect is half-maximal. Usually IC50 stands for the point on the concentration scale where inhibition reaches its midpoint.

The values are drawn from patent US9963433B2, “Anticancer drugs including the chemical structures of an androgen receptor ligand and a histone deacetylase inhibitor” (Wayne State University, priority 2016, dated 2018).
